{"source": "patent US11458213B2", "about": "“Prostate-specific membrane antigen targeted high-affinity agents for endoradiotherapy of prostate cancer” (THE JOHNS HOPKINS UNIVERSITY, priority 2016, dated 2022)", "key": {"PSMA+ PC3 PIP cells [1]": {"test_system": "PSMA+ PC3 PIP cells", "assay": "Cell binding, uptake and internalization in PSMA+ PC3 PIP cells", "type": "cell-based"}, "[2]": {"test_system": "PSMA-negative PC3 flu cells", "assay": "Cell uptake in PSMA-negative PC3 flu cells", "type": "cell-based", "conditions": "4 h incubation, n = 3"}, "PSMA+ PC3 PIP cells [3]": {"test_system": "PSMA+ PC3 PIP cells", "assay": "Clonogenic assay in PSMA+ PC3 PIP cells", "type": "cell-based", "conditions": "10 μCi dose"}, "PSMA-PC3 flu cells": {"test_system": "PSMA-PC3 flu cells", "assay": "Clonogenic assay in PSMA- PC3 flu cells", "type": "cell-based", "conditions": "10 μCi dose"}, "PSMA+ PC3 PIP tumor [4]": {"test_system": "PSMA+ PC3 PIP tumor", "assay": "Treatment study (SPECT imaging and therapeutic effect) in tumor-bearing mice", "type": "in vivo", "protocol": "A single dose of 3 mCi was injected via tail-vain injection in mice (n=10) bearing PSMA+ PC3 PIP tumor (size 3-5 mm). Saline was injected to another group of mice (n=10) for control study. Mice were monitored for body weight tumor size measure for two times per week. The control group of mice was euthanized after 4-8 weeks as the size of tumors over were >12 mm."}, "PSMA+ PC3 PIP tumor [5]": {"test_system": "PSMA+ PC3 PIP tumor", "assay": "In vivo tissue biodistribution", "conditions": "for tissue biodistribution PC-3 Flu: PC-3 Flu tumor; for tissue biodistribution PC-3 PIP: PC-3 PIP tumor"}}}
{"smiles": "O=C([O-])CN1CCN(CC(=O)[O-])CCN(CC(=O)O)C(Cc2ccc(NC(=S)NCCCCC(=O)N(CCCC[C@H](NC(=O)N[C@@H](CCC(=O)O)C(=O)O)C(=O)O)Cc3ccc(Br)cc3)cc2)CN(CC(=O)[O-])CC1.[177Lu+3]", "note": "(stereo partly drawn) [^177Lu-1]", "values": [{"measurement": "internalized activity compared to ^177Lu-3", "setting": "PSMA+ PC3 PIP cells [1]", "result": "~2", "unit": "fold"}, {"measurement": "Cell surface", "setting": "PSMA+ PC3 PIP cells [1]; 4 h incubation, n = 3", "result": "27.68 percent incubated dose per one million cells"}, {"measurement": "Cell uptake PSMA + PC3 PIP", "setting": "PSMA+ PC3 PIP cells [1]; 4 h incubation, n = 3", "result": "42.60 percent incubated dose per one million cells"}, {"measurement": "Internalization (cell lysate)", "setting": "PSMA+ PC3 PIP cells [1]; 4 h incubation, n = 3", "result": "15.88 percent incubated dose per one million cells"}, {"measurement": "uptake in PSMA+ PC3 cells (in words)", "setting": "PSMA+ PC3 PIP cells [1]; compared to ^177Lu-3", "result": "higher uptake in PSMA+ PC3 cells compared to ^177Lu-3"}, {"measurement": "Cell uptake PSMA − PC3 flu", "setting": "[2]", "result": "0.09 percent incubated dose per one million cells"}, {"measurement": "cell killing efficacy", "setting": "PSMA+ PC3 PIP cells [3]", "result": "about 100%"}, {"measurement": "toxicity for PSMA-PC3 flu cells (in words)", "setting": "PSMA-PC3 flu cells", "result": "no significant toxicity"}, {"measurement": "remission of PSMA+ PC3 tumor bearing mice", "setting": "PSMA+ PC3 PIP tumor [4]; mouse, in vivo", "result": "about 50%"}, {"measurement": "body weight during treatment (in words)", "setting": "PSMA+ PC3 PIP tumor [4]; single dose of 3 mCi", "result": "regained after 2 weeks"}, {"measurement": "survival of mice in complete remission", "setting": "PSMA+ PC3 PIP tumor [4]; single dose of 3 mCi", "result": "more than five months"}, {"measurement": "therapeutic efficacy compared to the control group using saline (in words)", "setting": "PSMA+ PC3 PIP tumor [4]; single dose of 3 mCi", "result": "decrease in tumor volume"}, {"measurement": "mice showing complete eradication of tumors", "setting": "PSMA+ PC3 PIP tumor [4]; single dose of 3 mCi via tail vein, n=10", "result": 50, "unit": "%"}, {"measurement": "number of mice with complete remission of the disease", "setting": "PSMA+ PC3 PIP tumor [4]; single dose of 3 mCi, n=10", "result": "Five"}, {"measurement": "tissue biodistribution Bladder", "setting": "PSMA+ PC3 PIP tumor [5]; 2 h", "result": "3.39 ± 2.78 percent injected dose per gram"}, {"measurement": "tissue biodistribution Bladder", "setting": "PSMA+ PC3 PIP tumor [5]; 24 h", "result": "0.31 ± 0.13 percent injected dose per gram"}, {"measurement": "tissue biodistribution Bladder", "setting": "PSMA+ PC3 PIP tumor [5]; 48 h", "result": "0.12 ± 0.07 percent injected dose per gram"}, {"measurement": "tissue biodistribution Bladder", "setting": "PSMA+ PC3 PIP tumor [5]; 72 h", "result": "0.06 ± 0.03 percent injected dose per gram"}, {"measurement": "tissue biodistribution Blood", "setting": "PSMA+ PC3 PIP tumor [5]; 2 h", "result": "0.68 ± 0.25 percent injected dose per gram"}, {"measurement": "tissue biodistribution Blood", "setting": "PSMA+ PC3 PIP tumor [5]; 24 h", "result": "0.01 ± 0.01 percent injected dose per gram"}, {"measurement": "tissue biodistribution Blood", "setting": "PSMA+ PC3 PIP tumor [5]; 48 h", "result": "0.00 ± 0.01 percent injected dose per gram"}, {"measurement": "tissue biodistribution Blood", "setting": "PSMA+ PC3 PIP tumor [5]; 72 h", "result": "0.00 ± 0.04 percent injected dose per gram"}, {"measurement": "tissue biodistribution Fat", "setting": "PSMA+ PC3 PIP tumor [5]; 2 h", "result": "0.35 ± 0.10 percent injected dose per gram"}, {"measurement": "tissue biodistribution Fat", "setting": "PSMA+ PC3 PIP tumor [5]; 24 h", "result": "0.08 ± 0.15 percent injected dose per gram"}, {"measurement": "tissue biodistribution Fat", "setting": "PSMA+ PC3 PIP tumor [5]; 48 h", "result": "0.01 ± 0.01 percent injected dose per gram"}, {"measurement": "tissue biodistribution Fat", "setting": "PSMA+ PC3 PIP tumor [5]; 72 h", "result": "0.06 ± 0.07 percent injected dose per gram"}, {"measurement": "tissue biodistribution Heart", "setting": "PSMA+ PC3 PIP tumor [5]; 2 h", "result": "0.28 ± 0.08 percent injected dose per gram"}, {"measurement": "tissue biodistribution Heart", "setting": "PSMA+ PC3 PIP tumor [5]; 24 h", "result": "0.02 ± 0.05 percent injected dose per gram"}, {"measurement": "tissue biodistribution Heart", "setting": "PSMA+ PC3 PIP tumor [5]; 48 h", "result": "0.01 ± 0.00 percent injected dose per gram"}, {"measurement": "tissue biodistribution Heart", "setting": "PSMA+ PC3 PIP tumor [5]; 72 h", "result": "0.01 ± 0.00 percent injected dose per gram"}, {"measurement": "tissue biodistribution Kidney", "setting": "PSMA+ PC3 PIP tumor [5]; 2 h", "result": "87.10 ± 25.99 percent injected dose per gram"}, {"measurement": "tissue biodistribution Kidney", "setting": "PSMA+ PC3 PIP tumor [5]; 24 h", "result": "1.65 ± 0.30 percent injected dose per gram"}, {"measurement": "tissue biodistribution Kidney", "setting": "PSMA+ PC3 PIP tumor [5]; 48 h", "result": "1.02 ± 0.58 percent injected dose per gram"}, {"measurement": "tissue biodistribution Kidney", "setting": "PSMA+ PC3 PIP tumor [5]; 72 h", "result": "0.62 ± 0.04 percent injected dose per gram"}, {"measurement": "tissue biodistribution Liver", "setting": "PSMA+ PC3 PIP tumor [5]; 2 h", "result": "0.39 ± 0.13 percent injected dose per gram"}, {"measurement": "tissue biodistribution Liver", "setting": "PSMA+ PC3 PIP tumor [5]; 24 h", "result": "0.11 ± 0.01 percent injected dose per gram"}, {"measurement": "tissue biodistribution Liver", "setting": "PSMA+ PC3 PIP tumor [5]; 48 h", "result": "0.09 ± 0.02 percent injected dose per gram"}, {"measurement": "tissue biodistribution Liver", "setting": "PSMA+ PC3 PIP tumor [5]; 72 h", "result": "0.07 ± 0.00 percent injected dose per gram"}, {"measurement": "tissue biodistribution Lung", "setting": "PSMA+ PC3 PIP tumor [5]; 2 h", "result": "1.12 ± 0.33 percent injected dose per gram"}, {"measurement": "tissue biodistribution Lung", "setting": "PSMA+ PC3 PIP tumor [5]; 24 h", "result": "0.06 ± 0.01 percent injected dose per gram"}, {"measurement": "tissue biodistribution Lung", "setting": "PSMA+ PC3 PIP tumor [5]; 48 h", "result": "0.04 ± 0.01 percent injected dose per gram"}, {"measurement": "tissue biodistribution Lung", "setting": "PSMA+ PC3 PIP tumor [5]; 72 h", "result": "0.04 ± 0.02 percent injected dose per gram"}, {"measurement": "tissue biodistribution Muscle", "setting": "PSMA+ PC3 PIP tumor [5]; 2 h", "result": "0.68 ± 0.98 percent injected dose per gram"}, {"measurement": "tissue biodistribution Muscle", "setting": "PSMA+ PC3 PIP tumor [5]; 24 h", "result": "0.01 ± 0.00 percent injected dose per gram"}, {"measurement": "tissue biodistribution Muscle", "setting": "PSMA+ PC3 PIP tumor [5]; 48 h", "result": "0.00 ± 0.00 percent injected dose per gram"}, {"measurement": "tissue biodistribution Muscle", "setting": "PSMA+ PC3 PIP tumor [5]; 72 h", "result": "0.02 ± 0.02 percent injected dose per gram"}, {"measurement": "tissue biodistribution PC-3 Flu", "setting": "PSMA+ PC3 PIP tumor [5]; 2 h", "result": "0.39 ± 0.03 percent injected dose per gram"}, {"measurement": "tissue biodistribution PC-3 Flu", "setting": "PSMA+ PC3 PIP tumor [5]; 24 h", "result": "0.10 ± 0.02 percent injected dose per gram"}, {"measurement": "tissue biodistribution PC-3 Flu", "setting": "PSMA+ PC3 PIP tumor [5]; 48 h", "result": "0.05 ± 0.01 percent injected dose per gram"}, {"measurement": "tissue biodistribution PC-3 Flu", "setting": "PSMA+ PC3 PIP tumor [5]; 72 h", "result": "0.06 ± 0.01 percent injected dose per gram"}, {"measurement": "tissue biodistribution PC-3 PIP", "setting": "PSMA+ PC3 PIP tumor [5]; 2 h", "result": "55.04 ± 7.23 percent injected dose per gram"}, {"measurement": "tissue biodistribution PC-3 PIP", "setting": "PSMA+ PC3 PIP tumor [5]; 24 h", "result": "40.61 ± 7.00 percent injected dose per gram"}, {"measurement": "tissue biodistribution PC-3 PIP", "setting": "PSMA+ PC3 PIP tumor [5]; 48 h", "result": "27.00 ± 7.03 percent injected dose per gram"}, {"measurement": "tissue biodistribution PC-3 PIP", "setting": "PSMA+ PC3 PIP tumor [5]; 72 h", "result": "24.90 ± 2.27 percent injected dose per gram"}, {"measurement": "tissue biodistribution Pancreas", "setting": "PSMA+ PC3 PIP tumor [5]; 2 h", "result": "0.28 ± 0.09 percent injected dose per gram"}, {"measurement": "tissue biodistribution Pancreas", "setting": "PSMA+ PC3 PIP tumor [5]; 24 h", "result": "0.02 ± 0.00 percent injected dose per gram"}, {"measurement": "tissue biodistribution Pancreas", "setting": "PSMA+ PC3 PIP tumor [5]; 48 h", "result": "0.01 ± 0.01 percent injected dose per gram"}, {"measurement": "tissue biodistribution Pancreas", "setting": "PSMA+ PC3 PIP tumor [5]; 72 h", "result": "0.01 ± 0.00 percent injected dose per gram"}, {"measurement": "tissue biodistribution Salivary gland (Sal. Gl)", "setting": "PSMA+ PC3 PIP tumor [5]; 2 h", "result": "1.09 ± 0.08 percent injected dose per gram"}, {"measurement": "tissue biodistribution Salivary gland (Sal. Gl)", "setting": "PSMA+ PC3 PIP tumor [5]; 24 h", "result": "0.09 ± 0.02 percent injected dose per gram"}, {"measurement": "tissue biodistribution Salivary gland (Sal. Gl)", "setting": "PSMA+ PC3 PIP tumor [5]; 48 h", "result": "0.05 ± 0.03 percent injected dose per gram"}, {"measurement": "tissue biodistribution Salivary gland (Sal. Gl)", "setting": "PSMA+ PC3 PIP tumor [5]; 72 h", "result": "0.05 ± 0.02 percent injected dose per gram"}, {"measurement": "tissue biodistribution Sm. Int.", "setting": "PSMA+ PC3 PIP tumor [5]; 2 h", "result": "0.51 ± 0.32 percent injected dose per gram"}, {"measurement": "tissue biodistribution Sm. Int.", "setting": "PSMA+ PC3 PIP tumor [5]; 24 h", "result": "0.03 ± 0.01 percent injected dose per gram"}, {"measurement": "tissue biodistribution Sm. Int.", "setting": "PSMA+ PC3 PIP tumor [5]; 48 h", "result": "0.02 ± 0.00 percent injected dose per gram"}, {"measurement": "tissue biodistribution Sm. Int.", "setting": "PSMA+ PC3 PIP tumor [5]; 72 h", "result": "0.02 ± 0.01 percent injected dose per gram"}, {"measurement": "tissue biodistribution Spleen", "setting": "PSMA+ PC3 PIP tumor [5]; 2 h", "result": "3.76 ± 0.70 percent injected dose per gram"}, {"measurement": "tissue biodistribution Spleen", "setting": "PSMA+ PC3 PIP tumor [5]; 24 h", "result": "0.15 ± 0.05 percent injected dose per gram"}, {"measurement": "tissue biodistribution Spleen", "setting": "PSMA+ PC3 PIP tumor [5]; 48 h", "result": "0.08 ± 0.03 percent injected dose per gram"}, {"measurement": "tissue biodistribution Spleen", "setting": "PSMA+ PC3 PIP tumor [5]; 72 h", "result": "0.08 ± 0.02 percent injected dose per gram"}, {"measurement": "tissue biodistribution Stomach", "setting": "PSMA+ PC3 PIP tumor [5]; 2 h", "result": "0.87 ± 0.63 percent injected dose per gram"}, {"measurement": "tissue biodistribution Stomach", "setting": "PSMA+ PC3 PIP tumor [5]; 24 h", "result": "0.04 ± 0.01 percent injected dose per gram"}, {"measurement": "tissue biodistribution Stomach", "setting": "PSMA+ PC3 PIP tumor [5]; 48 h", "result": "0.05 ± 0.04 percent injected dose per gram"}, {"measurement": "tissue biodistribution Stomach", "setting": "PSMA+ PC3 PIP tumor [5]; 72 h", "result": "0.04 ± 0.00 percent injected dose per gram"}, {"measurement": "uptake in PSMA+ PC3 PIP tumor (in words)", "setting": "PSMA+ PC3 PIP tumor [5]; mouse, in vivo", "result": "higher uptake and retention in PSMA+ PC3 PIP tumor uptake than ^177Lu-2"}]}
